Assay results reported in patent US8674070B2, “Cancer-targeting peptides and uses thereof in cancer therapy” (Academia Sinica, priority 2009, dated 2014).

Tests used:
[1] = tested on: cancer cells in breast cancer tissue samples; assay: Peptide competition assay on cancer tissue samples; type: binding, human; conditions: peptide 100 ng/ml; PC90 10^9 pfu
Protocol: The cancer targeting activity of PC90 was confirmed by a peptide competition assay, in which the cancer tissue samples were incubated with (1) the synthetic peptide (100 ng/ml) SMDPFLFQLLQL (SEQ ID NO:5) (SP90) and PC90 (10^9 pfu) or (2) the control peptide (100 ng/ml) RLLDTNRPLLPY (SEQ ID NO:6; see Lee et al., cancer Res. 64:8002-8008, 2004) and PC90. SP90 and the control peptide were synthesized and purified by reverse-phase high-performance liquid chromatography. The resultant peptides, having a purity of greater than 95%, were conjugated, if necessary, with FITC or biotin at their N-termini.

[2] = tested on: breast tumor xenografts; assay: In vivo peptide competition: co-injection with PC90 in mice bearing breast tumor xenografts; conditions: 100 μg peptide co-injected with PC90
Protocol: SP90 was co-administered to test its ability of blocking PC90 from binding to the tumor tissues. Briefly, 100 μg SP90 or the control peptides described above were co-injected with PC90 to mice bearing breast tumor xenografts. The normal organs and tumor tissues were removed and fixed in Bouin's solution (Sigma, Mo., USA). After fixation, the samples were embedded in paraffin blocks, sliced to sections, and the sections were deparaffinized, rehydrated, and subjected to immunostaining using the mouse anti-M13 mAb described in Example 1 above.

[3] = tested on: BT483 breast cancer xenografts; assay: Treatment of breast tumor xenografts: tumor volume; type: in vivo, SCID mice; conditions: doxorubicin 3 mg/kg once a week for three weeks, tail vein; n=6, P<0.005
Protocol: SCID mice (4-6 weeks of age) were injected s.c. in the dorsolateral flank with 1×10^7 BT483 cells to induce breast cancer xenografts. The tumor volumes in these mice were determined by the formula: length×[…]×0.52. The mice bearing xenograft tumors at a size of around 50-100 mm^3 were randomly assigned to four groups, each of which was treated as follows via administration through their tail veins.
Group 1: treated with SP90 conjugated doxorubicin-containing liposomes (SP90-LD) at a doxorubicin dosage of 3 mg/kg, once a week for three weeks,
Group 2: treated with doxorubicin-containing liposomes (LD), at a doxorubicin dosage of 3 mg/kg, once a week for three weeks,
Group 3: treated with free doxorubicin (FD), at a doxorubicin dosage of 3 mg/kg, once a week for three weeks, and
Group 4: treated with saline once a week for three weeks (blank control).
Mouse body weights and tumor sizes were measured twice a week. Tumor volumes were calculated following the formula described above.

[4] = Total white blood cell count in treated tumor-bearing mice; type: in vivo, SCID mice; conditions: three days after the last treatment (day 17); doxorubicin 3 mg/kg weekly x3
Protocol: The total white blood cell (WBC) numbers in the treated mice were determined three days after the last treatment (i.e., on day 17) as follows. […] The blood was then mixed with a red blood cell lysis buffer containing 2% acetic acid and 1% of Gentian violet (Sigma-Aldrich, Saint Louis, Mo., USA) and incubated at room temperature. The number of the WBCs was countered using a hemacytometer.

[5] = tested on: tumor blood vessels; assay: Tumor blood vessel staining with tomato lectin; type: in vivo, SCID mice; conditions: doxorubicin 3 mg/kg weekly x3; FIG. 3 Panel B
Source text: Tumor tissues were removed from the treated mice, fixed with 4% paraformaldehyde and embedded with paraffin. Blood vessels in the tumor tissues were detected by staining with Lycopersicon esculentum (tomato) lectin conjugated to biotin (Vector, CA, USA) and then with streptavidin-conjugated rhodamine (Pierce, Ill., USA).

[6] = Doxorubicin localization in tumor tissues of treated mice; type: in vivo, SCID mice; conditions: 2 mg/kg tail vein
Source text: At selected time points, three mice in each group were anaesthetized and sacrificed.

total number of the WBCs [4]	areas of tumor tissue in which doxorubicin was detected (autofluorescence) [6]	Molecule	competition against PC90 for binding to the cancer cells in the tissue samples [1]	inhibition of PC90 binding to the tumor tissues [2]	average tumor volume, fold larger than that of the Group 2 mice [3] [fold]	number of tumor vessels / tumor vascular density (lectin staining) [5]
		SMDPFLFQLLQL [SP90]	competed against PC90 for binding to the cancer cells	97%		
5.6×10^3 /mm^3	detected only in limited areas	COc1cccc2c1C(=O)c1c(O)c3c(c(O)c1C2=O)C[C@@](O)(C(=O)CO)C[C@@H]3O[C@H]1C[C@H](N)[C@H](O)[C@H](C)O1 [FD, doxorubicin]			8.3	high tumor vascular density
		RLLDTNRPLLPY [control peptide]	not	did not exhibit any inhibitory activity		
